Data on 13 molecules can be found in patent publication US20250263440A1, “CD38-BINDING AGENTS AND USES THEREOF” (PeptiDream Inc., priority 2019, published 2025).

As a reminder, the Kd is the free concentration of one partner at which half of the binding sites on the other are occupied at equilibrium, for simple one-to-one binding.

Positions of bridges follow the written chain, without caps; N, C: chain ends. Non-standard residues stand in square brackets, D forms with d. Residues, ends and D or L forms follow the SMILES beside them. Bip = N[C@@H](Cc1ccc(-c2ccccc2)cc1)C(=O)O; Met(O2) = CS(=O)(=O)CC[C@H](N)C(=O)O; hArg = N=C(N)NCCCC[C@H](N)C(=O)O; Ahp(2) = CCCCC[C@H](N)C(=O)O; hSer = N[C@@H](CCO)C(=O)O

This experiment has as its target His-tagged CD38 (Homo sapiens, UniProt P28907). Kind of experiment: SPR assay (Biacore S200, Sensor Chip NTA, single-cycle kinetics) of SEQ ID NO.1 variants against His-tagged CD38. The format is binding. To be noted: for kon / koff: SPR Biacore S200, NTA chip, His-tagged CD38; for kon: read-out: Ka (association rate constant); for koff: read-out: Kd (dissociation rate constant); for Kd: SPR Biacore S200, His-tagged CD38, calculated from ka and kd. The procedure: SPR assay was performed using Biacore S200 (Cytiva: Former GE Healthcare).
After the equilibration of Series S Sensor Chip NTA (produced by Cytiva: Former GE Healthcare) with Running Buffer (10 mM HEPES pH7.4, 150 mM NaCl, 0.05% Tween 20), followed by injection of 350 mM EDTA at a flow rate of 10 L/min for 60 seconds and […] NiCl2 at a flow rate of 10 L/min for 60 seconds, then 3 mM EDTA at a flow rate of 10 L/min for 120 seconds, sequently, to wash the sensor chip.
EDC/NHS mixture was injected at a flow rate of […] for 7 minutes to thereby activate the functional groups on sensor chip. His-tagged CD38 in Running Buffer (10 mM HEPES pH7.4, 150 mM NaCl, 0.05% Tween 20) was injected immobilized to at a flow rate of […]. For 7 minutes to immobilize the CD38 on the substrate surfaces of the sensor chip. Then Ethanolamine was injected at a flow rate of […] for 7 minutes.
1.0 M Ethanolamine(aq.) was injected at a flow rate of 10 L/min for 420 seconds for capping. 10 mM peptides (which were synthesised described above) in DMSO were diluted to obtain 10 uM with Running Buffer, and prepared 100 nM, 50 nM, 25 nM, 10 nM, 5 nM of each peptide's solutions (Peptide Samples).
Using these Peptide Samples, kinetics of peptides against His-tagged CD38 was measured. The method adopted for sample measurement was a single-cycle kinetics method. The analysis was conducted using the evaluation software 1.1 provided with Biacore S200. A DMSO correction curve obtained by solvent correction measurements was applied for the analysis. Kinetics fitting was done on the difference data obtained by subtracting the baseline data from sample measurement data.
KD values were calculated based on the association rate constant (ka) and dissociation rate constant (kd).

`CCCCC[C@@H]1NC(=O)[C@H](CCCNC(=N)N)NC(=O)[C@H](C)NC(=O)CSC[C@@H](C(N)=O)NC(=O)[C@H](CC(=O)O)NC(=O)[C@H](CCCCC)NC(=O)[C@H](Cc2ccc(-c3ccccc3)cc2)NC(=O)[C@H](CC(C)C)NC(=O)[C@H](C(C)C)NC(=O)[C@H](CCC(N)=O)NC(=O)[C@H](CC(=O)O)NC(=O)[C@H](Cc2c[nH]cn2)NC(=O)[C@H](Cc2ccc(O)cc2)NC1=O` [compound 4] ({CH2CO}-AR[Ahp(2)]YHDQVL[Bip][Ahp(2)]DC-NH2; thioether N-13 (inferred); N-terminus and C-terminus assumed): the kon amounted to 533000 M⁻¹ s⁻¹ and the koff stood at 0.0023 s⁻¹.
On to `CCCCC[C@@H]1NC(=O)[C@H](CCCNC(=N)N)NC(=O)[C@H](C)NC(=O)CSC[C@@H](C(N)=O)NC(=O)[C@H](CC(=O)O)NC(=O)[C@H](CCCCC)NC(=O)[C@H](Cc2ccc(-c3ccccc3)cc2)NC(=O)[C@H](CC(C)C)NC(=O)[C@H](C(C)C)NC(=O)[C@H](CC(N)=O)NC(=O)[C@H](CC(=O)O)NC(=O)[C@H](Cc2c[nH]cn2)NC(=O)[C@H](Cc2ccc(O)cc2)NC1=O` [compound 5] ({CH2CO}-AR[Ahp(2)]YHDNVL[Bip][Ahp(2)]DC-NH2; thioether N-13), for which the kon was 766000 M⁻¹ s⁻¹ and the koff was 0.00161 s⁻¹.
Regarding `CCCCC[C@@H]1NC(=O)[C@H](CCCNC(=N)N)NC(=O)[C@H](C)NC(=O)CSC[C@@H](C(N)=O)NC(=O)[C@H](CC(=O)O)NC(=O)[C@H](CCCCC)NC(=O)[C@H](Cc2ccc(-c3ccccc3)cc2)NC(=O)[C@H](CC(C)C)NC(=O)[C@H](C(C)C)NC(=O)[C@H](CCS(C)(=O)=O)NC(=O)[C@H](CC(=O)O)NC(=O)[C@H](Cc2c[nH]cn2)NC(=O)[C@H](Cc2ccc(O)cc2)NC1=O` [compound 6] ({CH2CO}-AR[Ahp(2)]YHD[Met(O2)]VL[Bip][Ahp(2)]DC-NH2; thioether N-13), the Kd was 2.94 nM, the kon was 631000 M⁻¹ s⁻¹ and the koff was 0.00186 s⁻¹.
Regarding `CCCCC[C@@H]1NC(=O)[C@H](CCCNC(=N)N)NC(=O)[C@H](C)NC(=O)CSC[C@@H](C(N)=O)NC(=O)[C@H](CC(=O)O)NC(=O)[C@H](CCCCC)NC(=O)[C@H](Cc2ccc(-c3ccccc3)cc2)NC(=O)[C@H]([C@@H](C)O)NC(=O)[C@H](C(C)C)NC(=O)CNC(=O)[C@H](CC(=O)O)NC(=O)[C@H](Cc2c[nH]cn2)NC(=O)[C@H](Cc2ccc(O)cc2)NC1=O` [compound 7] ({CH2CO}-AR[Ahp(2)]YHDGVT[Bip][Ahp(2)]DC-NH2; thioether N-13), the kon was determined as 819000 M⁻¹ s⁻¹ and the koff was 0.0535 s⁻¹.
In the case of `CCCCC[C@@H]1NC(=O)[C@H](CCCNC(=N)N)NC(=O)[C@H](C)NC(=O)CSC[C@@H](C(N)=O)NC(=O)[C@H](CC(=O)O)NC(=O)[C@H](CCCCC)NC(=O)[C@H](Cc2ccc(-c3ccccc3)cc2)NC(=O)[C@H](CCO)NC(=O)[C@H](C(C)C)NC(=O)CNC(=O)[C@H](CC(=O)O)NC(=O)[C@H](Cc2c[nH]cn2)NC(=O)[C@H](Cc2ccc(O)cc2)NC1=O` [compound 8] ({CH2CO}-AR[Ahp(2)]YHDGV[hSer][Bip][Ahp(2)]DC-NH2; thioether N-13), the Kd is 38.8 nM, the kon was 790000 M⁻¹ s⁻¹ and the koff came out at 0.0306 s⁻¹.
Turning to `CCCCC[C@@H]1NC(=O)[C@H](CCCNC(=N)N)NC(=O)[C@H](C)NC(=O)CSC[C@@H](C(N)=O)NC(=O)[C@H](CC(=O)O)NC(=O)[C@H](CCCCC)NC(=O)[C@H](Cc2ccc(-c3ccccc3)cc2)NC(=O)[C@H](CCS(C)(=O)=O)NC(=O)[C@H](C(C)C)NC(=O)CNC(=O)[C@H](CC(=O)O)NC(=O)[C@H](Cc2c[nH]cn2)NC(=O)[C@H](Cc2ccc(O)cc2)NC1=O` [compound 9] ({CH2CO}-AR[Ahp(2)]YHDGV[Met(O2)][Bip][Ahp(2)]DC-NH2; thioether N-13 (inferred); N-terminus and C-terminus assumed), the kon was 664000 M⁻¹ s⁻¹ and the koff was determined as 0.00627 s⁻¹.
Regarding `CCCCC[C@@H]1NC(=O)[C@H](CCCNC(=N)N)NC(=O)[C@H](C)NC(=O)CSC[C@@H](C(N)=O)NC(=O)[C@H](CC(=O)O)NC(=O)[C@H](CCCCC)NC(=O)[C@H](Cc2ccc(-c3ccccc3)cc2)NC(=O)[C@H](CC(C)C)NC(=O)[C@H](C(C)C)NC(=O)[C@H](CCC(=O)O)NC(=O)[C@H](CC(=O)O)NC(=O)[C@H](Cc2c[nH]cn2)NC(=O)[C@H](Cc2ccc(O)cc2)NC1=O` [compound 10] ({CH2CO}-AR[Ahp(2)]YHDEVL[Bip][Ahp(2)]DC-NH2; thioether N-13 (inferred); N-terminus and C-terminus assumed), the kon stood at 471000 M⁻¹ s⁻¹ and the koff worked out at 0.00223 s⁻¹.
Take `CCCCC[C@@H]1NC(=O)[C@H](CCCNC(=N)N)NC(=O)[C@H](C)NC(=O)CSC[C@@H](C(N)=O)NC(=O)[C@H](CC(=O)O)NC(=O)[C@H](CCCCC)NC(=O)[C@H](Cc2ccc(-c3ccccc3)cc2)NC(=O)[C@H](CC(C)C)NC(=O)[C@H](C(C)C)NC(=O)[C@H](CCCNC(=N)N)NC(=O)[C@H](CC(=O)O)NC(=O)[C@H](Cc2c[nH]cn2)NC(=O)[C@H](Cc2ccc(O)cc2)NC1=O` [compound 11] ({CH2CO}-AR[Ahp(2)]YHDRVL[Bip][Ahp(2)]DC-NH2; thioether N-13): the kon was 1.6e+06 M⁻¹ s⁻¹ and the koff is 0.0019 s⁻¹.
With `CCCCC[C@@H]1NC(=O)[C@H](CCCNC(=N)N)NC(=O)[C@H](C)NC(=O)CSC[C@@H](C(N)=O)NC(=O)[C@H](CC(=O)O)NC(=O)[C@H](CCCCC)NC(=O)[C@H](Cc2ccc(-c3ccccc3)cc2)NC(=O)[C@H](CC(C)C)NC(=O)[C@H](C(C)C)NC(=O)[C@H](CCCCNC(=N)N)NC(=O)[C@H](CC(=O)O)NC(=O)[C@H](Cc2c[nH]cn2)NC(=O)[C@H](Cc2ccc(O)cc2)NC1=O` [compound 12] ({CH2CO}-AR[Ahp(2)]YHD[hArg]VL[Bip][Ahp(2)]DC-NH2; thioether N-13 (inferred); N-terminus and C-terminus assumed), the kon is 660000 M⁻¹ s⁻¹ and the koff came to 0.0015 s⁻¹.
As for `CCCCC[C@@H]1NC(=O)[C@H](CCCNC(=N)N)NC(=O)[C@H](C)NC(=O)CSC[C@@H](C(N)=O)NC(=O)[C@H](CC(=O)O)NC(=O)[C@H](CCCCC)NC(=O)[C@H](Cc2ccc(-c3ccccc3)cc2)NC(=O)[C@H](CCS(C)(=O)=O)NC(=O)[C@H](C(C)C)NC(=O)[C@H](CCC(N)=O)NC(=O)[C@H](CC(=O)O)NC(=O)[C@H](Cc2c[nH]cn2)NC(=O)[C@H](Cc2ccc(O)cc2)NC1=O` [compound 13] ({CH2CO}-AR[Ahp(2)]YHDQV[Met(O2)][Bip][Ahp(2)]DC-NH2; thioether N-13), the kon is 1.1e+06 M⁻¹ s⁻¹ and the koff stood at 0.024 s⁻¹.
For `CCCCC[C@@H]1NC(=O)[C@H](CCCNC(=N)N)NC(=O)[C@H](C)NC(=O)CSC[C@@H](C(N)=O)NC(=O)[C@H](CC(=O)O)NC(=O)[C@H](CCCCC)NC(=O)[C@H](Cc2ccc(-c3ccccc3)cc2)NC(=O)[C@H](CCS(C)(=O)=O)NC(=O)[C@H](C(C)C)NC(=O)[C@H](CCC(=O)O)NC(=O)[C@H](CC(=O)O)NC(=O)[C@H](Cc2c[nH]cn2)NC(=O)[C@H](Cc2ccc(O)cc2)NC1=O` [compound 14] ({CH2CO}-AR[Ahp(2)]YHDEV[Met(O2)][Bip][Ahp(2)]DC-NH2; thioether N-13 (inferred); N-terminus and C-terminus assumed) the same measures were 570000 M⁻¹ s⁻¹ and 0.022 s⁻¹.
As for `CCCCC[C@@H]1NC(=O)[C@H](CCCNC(=N)N)NC(=O)[C@H](C)NC(=O)CSC[C@@H](C(N)=O)NC(=O)[C@H](CC(=O)O)NC(=O)[C@H](CCCCC)NC(=O)[C@H](Cc2ccc(-c3ccccc3)cc2)NC(=O)[C@H](CCS(C)(=O)=O)NC(=O)[C@H](C(C)C)NC(=O)[C@H](CCCNC(=N)N)NC(=O)[C@H](CC(=O)O)NC(=O)[C@H](Cc2c[nH]cn2)NC(=O)[C@H](Cc2ccc(O)cc2)NC1=O` [compound 15] ({CH2CO}-AR[Ahp(2)]YHDRV[Met(O2)][Bip][Ahp(2)]DC-NH2; thioether N-13), the Kd is 9.42 nM, the kon worked out at 1.4e+06 M⁻¹ s⁻¹ and the koff worked out at 0.013 s⁻¹.
In the case of `CCCCC[C@@H]1NC(=O)[C@H](CCCNC(=N)N)NC(=O)[C@H](C)NC(=O)CSC[C@@H](C(N)=O)NC(=O)[C@H](CC(=O)O)NC(=O)[C@H](CCCCC)NC(=O)[C@H](Cc2ccc(-c3ccccc3)cc2)NC(=O)[C@H](CCS(C)(=O)=O)NC(=O)[C@H](C(C)C)NC(=O)[C@H](CCCCNC(=N)N)NC(=O)[C@H](CC(=O)O)NC(=O)[C@H](Cc2c[nH]cn2)NC(=O)[C@H](Cc2ccc(O)cc2)NC1=O` [compound 16] ({CH2CO}-AR[Ahp(2)]YHD[hArg]V[Met(O2)][Bip][Ahp(2)]DC-NH2; thioether N-13), the dissociation constant (Kd) was 17.3 nM, the kon was found to be 870000 M⁻¹ s⁻¹ and the koff came out at 0.015 s⁻¹.
